Measurements taken from US9487511B2, “Cyclopropanamine compound and use thereof” (Takeda Pharmaceutical Company Limited, priority 2014, dated 2016).
Where a name gives a salt, the structure may show the parent alone. Read-outs that look alike come from different tables or passages of the source.

Assays:
human LSD1(172-833) = human LSD1(172-833) (Homo sapiens (Human), UniProt O60341); test: Measurement of LSD1 inhibitory activity (time-resolved fluorescence, biotin-histone H3 mono methylated K4 peptide); format: biochemical; settings: 60 min preincubation with enzyme at room temperature;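 also: after the compound–enzyme step, substrate reaction 5 min at room temperature in Tris-HCl pH 8.0 with BSA and DTT, halted by 2-PCPA, detected with europium anti-histone H3 antibody plus Streptavidin-XL665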
Method: A test compound dissolved in DMSO was added by to a reaction solution (50 mM Tris-HCl (pH 8.0), 0.1% BSA, 1 mM DTT) containing LSD1 enzyme, and the mixture was reacted at room temperature for 60 min. […] After reaction at room temperature for 5 min, 2-PCPA solution was added to terminate the reaction. A detection solution (800 mM potassium fluoride, 0.1% BSA) containing europium-labeled anti-histone H3 antibody (Wako Pure Chemical Industries, Ltd.) and Streptavidin-XL665 (Cisbio) was further added, and the mixture was left standing for 60 min. […] The LSD1 inhibitory rate (%) of the test compound was calculated by the following formula. inhibitory rate (%)=(1−(test compound count−blank)÷(control−blank))×100
The count of the LSD1 enzyme reaction mixture under compound non-addition conditions is indicated as control, and the count under compound non-addition and LSD1 enzyme non-addition conditions is indicated as blank. A concentration necessary for achieving 50% inhibitory rate was taken as ICH value.

MAO-A enzyme = MAO-A enzyme (Homo sapiens (Human), UniProt P21397); test: Measurement of MAO-A inhibitory activity (MAO-Glo Assay); format: biochemical
Method: The MAO-A inhibitory activity evaluation described below followed the protocol of MAO-Glo (registered trademark) Assay of Promega KK.
A test compound dissolved in DMSO was added to a reaction solution (100 mM HEPES (pH 7.5), 5% glycerol) containing MAO-A enzyme (Sigma-Aldrich Co. LLC.), and the mixture was reacted at room temperature for 15 min. MAO substrate (Promega KK) was added to start the reaction. After reaction at room temperature for 60 min, Luciferine detection reagent (Promega KK) was added to terminate the reaction. After reaction at room temperature for 20 min with stirring, the luminescence was measured by Envision (PerkinElmer). The MAO-A inhibitory rate (%) of the test compound was calculated by the following formula. inhibitory rate (%)=(1−(test compound count−blank)÷(control−blank))×100
The count of the MAO-A enzyme reaction mixture under compound non-addition conditions is indicated as control, and the count under compound non-addition and MAO-A enzyme non-addition conditions is indicated as blank.

MAO-B enzyme = MAO-B enzyme (Homo sapiens (Human), UniProt P27338); test: Measurement of MAO-B inhibitory activity (MAO-Glo Assay); format: biochemical
Method: The MAO-B inhibitory activity evaluation described below followed the protocol of MAO-Glo (registered trademark) Assay of Promega KK.
A test compound dissolved in DMSO was added to a reaction solution (100 mM HEPES (pH 7.5), 5% glycerol, 10% DMSO) containing MAO-B enzyme (Sigma-Aldrich Co. LLC.), and the mixture was reacted at room temperature for 15 min. MAO substrate (Promega KK) was added to start the reaction. After reaction at room temperature for 60 min, Luciferine detection reagent (Promega KK) (50 μL) was added to terminate the reaction. After reaction at room temperature for 20 min with stirring, the luminescence was measured by Envision (PerkinElmer). The MAO-B inhibitory rate (%) of the test compound was calculated by the following formula. inhibitory rate (%)=(1−(test compound count−blank)÷(control−blank))×100
The count of the MAO-B enzyme reaction mixture under compound non-addition conditions is indicated as control, and the count under compound non-addition and MAO-B enzyme non-addition conditions is indicated as blank.

[1] = Evaluation of blood cell number in mouse; format: in vivo; settings: male ICR mice, oral, repeated 7 or 9 days
Method: All compounds were repeatedly administered to the mice at a dose of 1 mg/kg, 10 mg/kg or 100 mg/kg (body weight) for 7 or 9 days. One day after the final administration of the compound, the whole blood was collected.
Using Sysmex XT-1800i (Sysmex Corporation), the white blood cell number, red blood cell number, and platelet number in the collected whole blood per unit volume were measured. The influence of each compound on each blood cell number was determined by calculating the number with the mean of each blood cell number of the mouse without administration of the compound (0 mg/kg group), and the mean of each blood cell number in the whole blood of a mouse with the administration of the compound.

Sequence of MAO-B enzyme (P27338 whole entry): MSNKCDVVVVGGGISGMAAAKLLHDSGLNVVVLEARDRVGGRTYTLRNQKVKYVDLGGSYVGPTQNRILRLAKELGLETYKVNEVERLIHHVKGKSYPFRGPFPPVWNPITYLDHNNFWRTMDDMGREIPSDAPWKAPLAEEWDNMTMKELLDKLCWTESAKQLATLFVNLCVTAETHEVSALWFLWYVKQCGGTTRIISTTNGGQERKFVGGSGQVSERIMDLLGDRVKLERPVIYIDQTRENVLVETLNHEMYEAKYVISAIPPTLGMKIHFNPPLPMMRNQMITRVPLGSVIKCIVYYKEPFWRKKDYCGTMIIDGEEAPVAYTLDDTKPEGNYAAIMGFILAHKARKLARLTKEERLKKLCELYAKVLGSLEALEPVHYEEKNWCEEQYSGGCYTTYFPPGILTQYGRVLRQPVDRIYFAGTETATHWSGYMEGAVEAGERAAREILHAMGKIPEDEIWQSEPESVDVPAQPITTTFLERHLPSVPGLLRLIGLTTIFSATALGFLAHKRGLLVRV
Sequence of MAO-A enzyme (P21397 whole entry): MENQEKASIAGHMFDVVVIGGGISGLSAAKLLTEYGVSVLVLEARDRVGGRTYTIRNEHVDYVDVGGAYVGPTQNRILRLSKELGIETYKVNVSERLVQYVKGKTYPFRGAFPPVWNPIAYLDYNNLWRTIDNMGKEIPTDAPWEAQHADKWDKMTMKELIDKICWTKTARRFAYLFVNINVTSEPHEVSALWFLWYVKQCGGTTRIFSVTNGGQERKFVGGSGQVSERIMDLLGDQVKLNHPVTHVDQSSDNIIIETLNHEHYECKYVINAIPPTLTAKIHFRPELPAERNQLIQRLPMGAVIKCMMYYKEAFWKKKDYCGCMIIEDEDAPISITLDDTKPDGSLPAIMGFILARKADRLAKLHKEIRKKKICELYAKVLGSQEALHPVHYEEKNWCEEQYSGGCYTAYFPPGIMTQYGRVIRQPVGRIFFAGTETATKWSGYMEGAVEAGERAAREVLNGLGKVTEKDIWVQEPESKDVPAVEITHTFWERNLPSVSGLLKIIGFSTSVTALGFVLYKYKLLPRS

SMILES | IC50 (human LSD1(172-833)) | IC50 (MAO-A enzyme) | IC50 (MAO-B enzyme) | other results
O=C(NC1CCC(F)(F)CC1)c1cc2c(c([C@@H]3C[C@H]3NCC3CCOCC3)c1)OCC2 (relative stereo) [Example 12, N-(4,4-difluorocyclohexyl)-7-(trans-2-((tetrahydro-2H-pyran-4-ylmethyl)amino)cyclopropyl)-2,3-dihydro-1-benzofuran-5-carboxamide hydrochloride] | < 0.1 µM | > 100 µM | > 100 µM | –
Cc1nnc(NC(=O)c2cc([C@@H]3C[C@H]3NCC3CCOCC3)cc3ccccc23)s1 (relative stereo) [Example 16, N-(5-methyl-1,3,4-thiadiazol-2-yl)-3-(trans-2-((tetrahydro-2H-pyran-4-ylmethyl)amino)cyclopropyl)-1-naphthamide dihydrochloride] | < 0.1 µM | > 100 µM | > 100 µM | –
Cc1nnc(NC(=O)c2csc([C@@H]3C[C@H]3NCC3CC3)c2)s1 (relative stereo) [Example 23, 5-(trans-2-((cyclopropylmethyl)amino)cyclopropyl)-N-(5-methyl-1,3,4-thiadiazol-2-yl)thiophene-3-carboxamide dihydrochloride] | – | > 100 µM | > 100 µM | –
O=C(NC1CCC(F)(F)CC1)c1csc([C@@H]2C[C@H]2NCC2CCOCC2)c1 (relative stereo) [Example 24, N-(4,4-difluorocyclohexyl)-5-(trans-2-((tetrahydro-2H-pyran-4-ylmethyl)amino)cyclopropyl)thiophene-3-carboxamide hydrochloride] | < 0.1 µM | > 100 µM | > 100 µM | –
O=C(NC1CCC(F)(F)CC1)c1csc([C@@H]2C[C@H]2NCC2CC2)c1 (relative stereo) [Example 30, 5-(trans-2-((cyclopropylmethyl)amino)cyclopropyl)-N-(4,4-difluorocyclohexyl)thiophene-3-carboxamide hydrochloride] | < 0.1 µM | > 100 µM | > 100 µM | –
O=C(NC1CCC(F)(F)CC1)c1csc([C@@H]2C[C@H]2NC2CCOCC2)c1 (relative stereo) [Example 31, N-(4,4-difluorocyclohexyl)-5-(trans-2-(tetrahydro-2H-pyran-4-ylamino)cyclopropyl)thiophene-3-carboxamide hydrochloride] | < 0.1 µM | > 100 µM | > 100 µM | –
Cn1cc(NC(=O)c2csc([C@@H]3C[C@H]3NC3CCC3)c2)cn1 (relative stereo) [Example 34, 5-(trans-2-(cyclobutylamino)cyclopropyl)-N-(1-methyl-1H-pyrazol-4-yl)thiophene-3-carboxamide hydrochloride] | < 0.1 µM | > 100 µM | > 100 µM | –
Cc1nnc(NC(=O)c2cc([C@@H]3C[C@H]3NCC3CCOCC3)cs2)s1 (relative stereo) [Example 58, N-(5-methyl-1,3,4-thiadiazol-2-yl)-4-(trans-2-((tetrahydro-2H-pyran-4-ylmethyl)amino)cyclopropyl)thiophene-2-carboxamide hydrochloride] | < 0.1 µM | > 100 µM | > 100 µM | –
Cc1sc([C@@H]2C[C@H]2NCC2CC2)cc1C(=O)NC1CCC(F)(F)CC1 (relative stereo) [Example 65, 5-(trans-2-((cyclopropylmethyl)amino)cyclopropyl)-N-(4,4-difluorocyclohexyl)-2-methylthiophene-3-carboxamide hydrochloride] | < 0.1 µM | 25 µM | > 100 µM | –
Cc1sc([C@@H]2C[C@H]2NCC2CCOCC2)cc1C(=O)NC1CCC(F)(F)CC1 (relative stereo) [Example 66, N-(4,4-difluorocyclohexyl)-2-methyl-5-(trans-2-((tetrahydro-2H-pyran-4-ylmethyl)amino)cyclopropyl)thiophene-3-carboxamide hydrochloride] | < 0.1 µM | 98 µM | > 100 µM | –
Cc1nnc(NC(=O)c2cc([C@@H]3C[C@H]3NCC3CC3)sc2C)s1 (relative stereo) [Example 69, 5-(trans-2-((cyclopropylmethyl)amino)cyclopropyl)-2-methyl-N-(5-methyl-1,3,4-thiadiazol-2-yl)thiophene-3-carboxamide dihydrochloride] | < 0.1 µM | 33 µM | > 100 µM | –
Cc1nnc(NC(=O)c2cc([C@@H]3C[C@H]3NCC3CCOCC3)sc2C)s1 (relative stereo) [Example 70, 2-methyl-N-(5-methyl-1,3,4-thiadiazol-2-yl)-5-(trans-2-((tetrahydro-2H-pyran-4-ylmethyl)amino)cyclopropyl)thiophene-3-carboxamide dihydrochloride] | < 0.1 µM | 10 µM | 23 µM | –
O=C(NC1CCCC1)c1csc(C2CC2NC2CCOCC2)c1 (single isomer, unassigned) [Example 38, hydrochloride] | < 0.1 µM | > 100 µM | > 100 µM | –
O=C(NC1CCCC1)c1csc(C2CC2NC2CCOCC2)c1 (single isomer, unassigned) [Example 39] | < 0.1 µM | 23 µM | > 100 µM | –
Cc1nnc(NC(=O)c2csc(C3CC3NCC3CCOCC3)c2)s1 (single isomer, unassigned) [Example 40, dihydrochloride] | < 0.1 µM | – | > 100 µM | IC50 (MAO-A enzyme; dihydrochloride): > 100 µM
Cc1nnc(NC(=O)c2csc(C3CC3NCC3CCOCC3)c2)s1 (single isomer, unassigned) [Example 41, dihydrochloride] | < 0.1 µM | – | – | IC50 (MAO-A enzyme; dihydrochloride): 67 µM
NC1CCC(N[C@@H]2C[C@H]2c2cc(C(=O)NC3CCC(F)(F)CC3)cs2)CC1 (single isomer, unassigned) [Example 45, dihydrochloride] | < 0.1 µM | > 100 µM | > 100 µM | –
O=C(NC1CCC(F)(F)CC1)c1csc([C@@H]2C[C@H]2NC2CCOCC2)c1 [Example 44, N-(4,4-difluorocyclohexyl)-5-((1R,2R)-2-(tetrahydro-2H-pyran-4-ylamino)cyclopropyl)thiophene-3-carboxamide hydrochloride] | < 0.1 µM | > 100 µM | 100 µM | –
N[C@H]1CC[C@H](N[C@@H]2C[C@H]2c2cc(C(=O)NC3CCC(F)(F)CC3)cs2)CC1 [Example 46, 5-((1R,2R)-2-(trans-(4-aminocyclohexyl)amino)cyclopropyl)-N-(4,4-difluorocyclohexyl)thiophene-3-carboxamide dihydrochloride] | < 0.1 µM | > 100 µM | > 100 µM | –
O=C(NC1CCOCC1)c1csc([C@@H]2C[C@H]2NC2CCC(F)(F)CC2)c1 [Example 47, 5-((1R,2R)-2-((4,4-difluorocyclohexyl)amino)cyclopropyl)-N-(tetrahydro-2H-pyran-4-yl)thiophene-3-carboxamide hydrochloride] | < 0.1 µM | > 100 µM | > 100 µM | –
Cc1nnc(NC(=O)c2csc([C@@H]3C[C@H]3NC3CCN(C4CC4)CC3)c2)s1 [Example 48, 5-((1R,2R)-2-((1-cyclopropylpiperidin-4-yl)amino)cyclopropyl)-N-(5-methyl-1,3,4-thiadiazol-2-yl)thiophene-3-carboxamide dihydrochloride] | < 0.1 µM | 31 µM | > 100 µM | –
Cc1nnc(NC(=O)c2csc([C@@H]3C[C@H]3NC3CCOCC3)c2)s1 [Example 49, N-(5-methyl-1,3,4-thiadiazol-2-yl)-5-((1R,2R)-2-(tetrahydro-2H-pyran-4-ylamino)cyclopropyl)thiophene-3-carboxamide hydrochloride] | < 0.1 µM | > 100 µM | > 100 µM | –
Cc1ncc(NC(=O)c2csc([C@@H]3C[C@H]3NC3CCOCC3)c2)s1 [Example 50, N-(2-methyl-1,3-thiazol-5-yl)-5-((1R,2R)-2-(tetrahydro-2H-pyran-4-ylamino)cyclopropyl)thiophene-3-carboxamide hydrochloride] | < 0.1 µM | > 100 µM | > 100 µM | –
Cc1nnc(NC(=O)c2cc([C@@H]3C[C@H]3NCC3CCOCC3)cs2)s1 [Example 72, N-(5-methyl-1,3,4-thiadiazol-2-yl)-4-((1S,2R)-2-((tetrahydro-2H-pyran-4-ylmethyl)amino)cyclopropyl)thiophene-2-carboxamide hydrochloride] | < 0.1 µM | – | – | –
Cc1nnc(NC(=O)c2cc([C@@H]3C[C@H]3NCC3CC3)c(C)s2)s1 [Example 95, 4-((1S,2R)-2-((cyclopropylmethyl)amino)cyclopropyl)-5-methyl-N-(5-methyl-1,3,4-thiadiazol-2-yl)thiophene-2-carboxamide fumarate] | – | – | – | Platelets, Mean ([1]; 1 mg/kg): 1352 10^3 cells; Red blood cells, Mean ([1]; 1 mg/kg): 888 10^4 cells; White blood cells, Mean ([1]; 1 mg/kg): 422 10 cells; Platelets, Mean ([1]; 10 mg/kg): 1482 10^3 cells; Red blood cells, Mean ([1]; 10 mg/kg): 898 10^4 cells; White blood cells, Mean ([1]; 10 mg/kg): 408 10 cells
Cc1sc(C(=O)Nc2cnn(C)c2)cc1[C@@H]1C[C@H]1NC1CCC1 [Example 104, 4-((1S,2R)-2-(cyclobutylamino)cyclopropyl)-5-methyl-N-(1-methyl-1H-pyrazol-4-yl)thiophene-2-carboxamide dihydrochloride] | – | – | – | Platelets, Mean ([1]; 1 mg/kg, dihydrochloride): 1370 10^3 cells; Red blood cells, Mean ([1]; 1 mg/kg, dihydrochloride): 870 10^4 cells; White blood cells, Mean ([1]; 1 mg/kg, dihydrochloride): 373 10 cells; Platelets, Mean ([1]; 10 mg/kg, dihydrochloride): 1404 10^3 cells; Red blood cells, Mean ([1]; 10 mg/kg, dihydrochloride): 872 10^4 cells; White blood cells, Mean ([1]; 10 mg/kg, dihydrochloride): 397 10 cells
